Columns and labels:
[1] = Dose-escalation toxicology study of [^225Ac]Proteus-DOTA in healthy nude mice; type: in vivo
Description: The maximum tolerated dose was not reached. Treated animal weights plotted as the percentage of pre-treatment baseline weight. Asterisk (*) indicates mouse required euthanasia or was discovered deceased. Data is presented as mean ±SD.
Toxicology study of [^225Ac]Pr-DOTA in healthy mice. A dose-escalation toxicity study was performed to evaluate any morbidity and histopathological damage attributed to [^225Ac]Proteus-DOTA. […] Unscheduled mortality (mice found dead or found sick and euthanized) were submitted for pathology. […] A total of three unscheduled mortalities occurred: 2/5 from the 0.5 μCi dose group; one on day 36 that was submitted for necropsy because of 20% weight loss-no gross pathologic or histopathologic lesions were observed, and no significant findings were observed on hematology and serum chemistry; and by the time the other mouse was found dead on day 144, necropsy was not possible. In addition, one mouse from group 8 μCi was euthanized after 123 days with a Staphylococcus bacterial infection. The significant findings in this mouse were histiocytic and eosinophilic myocardis, eosinophilic interstitial pneumonia, soft tissue hemorrhages, marked thrombocytopenia, and mild anemia with elevation of reticulocytes. The myocarditis, pnemonia, and mild anemia were related to some findings observed at scheduled sacrifice. Such thrombocytopenia with secondary hemorrhages was not observed in other mice in this study. Serum chemistry was unremarkable.

[2] = Biodistribution of [^225Ac]Proteus-DOTA alone in tumor-free nude mice; type: in vivo; conditions: hapten alone, 1 h p.i.
Excerpt: Carcass radioactivity was not collected during this study.

anti-HER2-C825 = experiment: In vitro mixing with DOTA-PRIT BsAb followed by size-exclusion chromatography; type: binding
Description: In vitro Mixing of [^225Ac]Proteus-DOTA with a DOTA-PRIT BsAb, followed by In vivo Targeting Studies. […] After one week of storage of [^225Ac]Proteus-DOTA at room temperature, an in vitro mixing experiment consisting of mixing 145 μL of 6.91 mg/mL of anti-HER2-C825 (4.8 nmol of BsAb or 9.6 nmol of C825) and 90 μL of [^225Ac]Proteus-DOTA (488 nCi/8.64 nmol) for 1 h at room temperature (final volume 235 μL). As a control, 1 mg of trastuzumab (6.67 nmol) with also mixed in vitro with 90 μL of [^225Ac]Proteus-DOTA (468 nCi/8.64 nmol) in the same manner as the anti-HER2-C825. These two solutions were run separately on PD-10 size-exclusion columns pre-equilibrated with saline+1% human serum albumin, and were compared with the column elution of 90 μL (488 nCi/8.64 nmol) of [^225Ac]Proteus-DOTA only. Elution fractions were counted on the gamma-counter using an open window setting.
This was done by mixing the BsAb (˜210 kD) in slight molar excess to [^225Ac]Proteus-DOTA (9.6 nmol of C825/8.6 nmol of [^225Ac]Proteus-DOTA), followed by incubation at room temperature for 1 hour.

[3] = test system: HER2-expressing BT-474 xenografts; experiment: Ex vivo biodistribution of BsAb/hapten complex or hapten alone in BT-474 tumor-bearing mice; design: species or system athymic nude mice; conditions: 4 h after injection
Description: The ^225Ac-Proteus-DOTA haptens were injected intravenously via the lateral tail vein and euthanized 4 hours later for organ collection and radioactivity assessment. Asterisk (*) indicates levels below the limit of detection. Two groups of nude mice with subcutaneous BT474 tumors (3 mice each) were treated with either: [^225Ac Proteus-DOTA] only (0.51 nmol/mouse; ˜30 nCi of ^225Ac/mouse) or PD10-purified [anti-HER2-C825/[^225Ac Proteus-DOTA] complex (estimate 1.79 nmol of ^225Ac Proteus-DOTA/mouse, 1.0 nmol of antibody/mouse; 100 nCi ^225Ac/mouse), and sacrificed 4 h post-injection for ex vivo biodistribution assay. The tissue samples were read in the gamma counter the following day at equilibrium.
Biodistribution Experiments.
To determine whether isolated BsAb/[^225Ac]Proteus-DOTA complexes could target tumors in vivo, a biodistribution assay was conducted after SEC purification with two groups of athymic nude mice (n=3) bearing subcutaneous HER2-expressing BT-474 xenografts. […]

[4] = n = 3, listed as [^225Ac] Proteus-DOTA

O=C([O-])CN1CCN(CC(=O)[O-])CCN(CC(=O)NCCOCCOCCOCCOCCNC(=S)Nc2ccc(CC3CN(CC(=O)[O-])CCN(CC(=O)[O-])CCN(CC(=O)[O-])CCN3CC(=O)[O-])cc2)CCN(CC(=O)[O-])CC1.[225Ac+3].[Lu+3] (centres unmarked) [[^225Ac]Proteus-DOTA]
toxicity (defined as >10% weight loss) ([1]; 0.25-8 μCi/mouse, 145 days): no toxicity was observed | mice affected by histiocytic and eosinophilic inflammation ([1]; 0.25 μCi): 0/5 | mice affected by histiocytic and eosinophilic inflammation ([1]; 0.5 μCi): 0/4 | unscheduled mortalities ([1]; 0.5 μCi dose group (day 36 and day 144)): 2/5 | mice affected by histiocytic and eosinophilic inflammation ([1]; 1 μCi): 0/5 | mice affected by histiocytic and eosinophilic inflammation ([1]; 2 μCi): 1/5 | mice affected by histiocytic and eosinophilic inflammation ([1]; 4 μCi): 1/5 | mice affected by histiocytic and eosinophilic inflammation ([1]; 8 Ci group): 3/5 | unscheduled mortalities (euthanized, Staphylococcus bacterial infection) ([1]; 8 μCi group, after 123 days): one | organ weights at necropsy ([1]; 145 days, varying dose levels): No significant group differences | unscheduled mortalities, total ([1]; all dose groups, 145 days): three | radiation-induced histologic organ damage at necropsy ([1]; any dose level, 145 days): no radiation-induced histologic organ damage | effect on serum chemistry ([1]; any dose level, n=29): No effect | overall toxicity, acute or chronic radiation damage to normal tissues ([1]; doses as high as 8 μCi (296 kBq)/mouse): nontoxic | decrease of red blood cells mass ([1]; highest dose group (8 μCi)): ~10% | maximum tolerated dose ([1]; single i.v. doses 0.25-8 μCi/mouse): not reached | Blood uptake ([2]; n = 3): 0.31±0.54 % ID/g | Bone uptake ([2]; n = 3): 0.45 ± 0.79 % ID/g | Kidneys uptake ([2]; n = 3): 0.63±0.41 % ID/g | Large Intestine uptake ([2]; n = 3): 0.02 ± 0.02 % ID/g | Liver uptake ([2]; n = 3): 0.04±0.06 % ID/g | Muscle uptake ([2]; n = 3): 0.98 ± 0.91 % ID/g | Small Intestine uptake ([2]; n = 3): 0.16 ± 0.26 % ID/g | Spleen uptake ([2]; n = 3): 0.04 ± 0.06 % ID/g | Stomach uptake ([2]; n = 3): 0.24 ± 0.38 % ID/g | Blood uptake [2, 4]: 0.31 ± 0.54 % ID/g | Kidneys uptake [2, 4]: 0.63 ± 0.41 % ID/g | Liver uptake [2, 4]: 0.01 ± 0.02 % ID/g | remaining activity recovered in elution fractions between 4.6-7.1 mL (anti-HER2-C825; PD-10 size-exclusion column): 90% | recovered ^225Ac-activity eluting within the first 4.1 mL (anti-HER2-C825; PD-10 size-exclusion column after 1 h mixing at room temperature): 9.3% | uptake in all assayed tissues [3]: ≤ 2 % ID/g | tumor accumulation ([3]; BT-474 xenograft, i.v., n=3): 0.50±0.34 % ID/g

— patent publication US11565005B2, “Dota-hapten compositions for anti-dota/anti-tumor antigen bispecific antibody pretargeted radioimmunotherapy” (MEMORIAL SLOAN KETTERING CANCER CENTER, priority 2017, dated 2023)
